Results on three compounds are retold here after US6914151B1, “Crystallization processes for the formation of stable crystals of aspartame derivative” (Ajinomoto Co., Inc., priority 1998, dated 2005).

Each structure is given as a SMILES string.

A short description of data set [1]: Stability test at 70° C. of crystals (remaining ratio of N-(3,3-dimethylbutyl)-APM). The format is physicochemical. The procedure:
The resulting G-type crystals and A-type crystals of N-(3,3-dimethylbutyl)-APM were tested at 70° C., concerning their stability. […] The relationship between the storage time and the remaining ratio of N-(3,3-dimethylbutyl)-APM in this test will be shown below in Table 1.

For data set [2] the following is noted: on the weight basis, cited from earlier work.

Consider `COC(=O)[C@H](Cc1ccccc1)NC(=O)[C@H](CC(=O)O)NCCC(C)(C)C` [A, N-[N-(3,3-dimethylbutyl)-L-α-aspartyl]-L-phenylalanine methyl ester], for which the Remaining ratio turned out to be 95 wt. % in data set [1] (time elapsed 0 hrs); 95 wt. % in data set [1] (time elapsed 52 hrs); 94 wt. % in data set [1] (time elapsed 160 hrs); 94 wt. % in data set [1] (time elapsed 160 hrs, listed as A-type crystals).
As for `COC(=O)[C@H](Cc1ccccc1)NC(=O)[C@H](CC(=O)O)NCCC(C)(C)C` [G, N-[N-(3,3-dimethylbutyl)-L-α-aspartyl]-L-phenylalanine methyl ester, reference compound], the Remaining ratio in data set [1] (time elapsed 0 hrs) turned out to be 96 wt. %; in data set [1] (time elapsed 52 hrs) it was 87 wt. %; in data set [1] (time elapsed 160 hrs) it was 34 wt. %; in data set [1] (time elapsed 160 hrs, listed as G-type crystals), 34 wt. %.
For the compound `COC(=O)[C@H](Cc1ccccc1)NC(=O)[C@H](CC(=O)O)NCCC(C)(C)C` [N-(3,3-dimethylbutyl)-ATM, N-[N-(3,3-dimethylbutyl)-L-α-aspartyl]-L-phenylalanine methyl ester], the “sweetening potency relative to aspartame” value in data set [2] (times that of aspartame) is “at least 50 times”. In addition, the “sweetening potency relative to sucrose” value in data set [2] (times that of sucrose (table sugar)) was “about 10,000 times”.
